From PubChem BioAssay AID1963846 (Molecular Pharmacology Branch, DTP, NCI, 2024)

System: 454973-116-R2-J3-PDC complex spheroid viability
Experiment: Anticancer human tumor 454973-116-R2-J3-PDC patient-derived pancreatic carcinoma cell line growth inhibition [POLQ]
Details: for IC50: curve of first compound; for viability, T/C: stronger effect = lower value
How it was run: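 Complex spheroid viability model combining PDC tumour cells with endothelial (HUVEC) and MSC stromal cells. Novobiocin, ART-558 or RP6685 were tested singly and in combination with standard and investigational anticancer drugs. Each was titrated in half-log steps from near clinical Cmax, or from 10 microM where Cmax was unknown.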

[1] = second compound 0.0316 µM, first compound 0.0316 µM
[2] = second compound 0.0316 µM, first compound 0.1 µM
[3] = second compound 0.0316 µM, first compound 0.316 µM
[4] = second compound 0.0316 µM, first compound 1 µM
[5] = second compound 0.0316 µM, first compound 3.16 µM
[6] = second compound 0.0316 µM, first compound 10 µM
[7] = second compound 0.1 µM, first compound 0.0316 µM
[8] = second compound 0.1 µM, first compound 0.1 µM
[9] = second compound 0.1 µM, first compound 0.316 µM
[10] = second compound 0.1 µM, first compound 1 µM
[11] = second compound 0.1 µM, first compound 3.16 µM
[12] = second compound 0.1 µM, first compound 10 µM
[13] = second compound 0.316 µM, first compound 0.0316 µM
[14] = second compound 0.316 µM, first compound 0.1 µM
[15] = second compound 0.316 µM, first compound 0.316 µM
[16] = second compound 0.316 µM, first compound 1 µM
[17] = second compound 0.316 µM, first compound 3.16 µM
[18] = second compound 0.316 µM, first compound 10 µM
[19] = second compound 1 µM, first compound 0.0316 µM
[20] = second compound 1 µM, first compound 0.1 µM
[21] = second compound 1 µM, first compound 0.316 µM
[22] = second compound 1 µM, first compound 1 µM
[23] = second compound 1 µM, first compound 3.16 µM
[24] = second compound 1 µM, first compound 10 µM
[25] = second compound 3.16 µM, first compound 0.0316 µM
[26] = second compound 3.16 µM, first compound 0.1 µM
[27] = second compound 3.16 µM, first compound 0.316 µM
[28] = second compound 3.16 µM, first compound 1 µM
[29] = second compound 3.16 µM, first compound 3.16 µM
[30] = second compound 3.16 µM, first compound 10 µM
[31] = second compound 10 µM, first compound 0.0316 µM
[32] = second compound 10 µM, first compound 0.1 µM
[33] = second compound 10 µM, first compound 0.316 µM
[34] = second compound 10 µM, first compound 1 µM
[35] = second compound 10 µM, first compound 3.16 µM
[36] = second compound 10 µM, first compound 10 µM
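Further: spheroids exposed to drugs for seven days before measurement.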
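Wherever viability, T/C is given: percent viability relative to DMSO vehicle control wells taken as 100%.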

With `COc1cc(C2c3cc4c(cc3C(OC3OC5COC(C)OC5C(O)C3O)C3COC(=O)C23)OCO4)cc(OC)c1O` (stereo unspecified) + COC1C(OC(N)=O)C(O)C(Oc2ccc3c(O)c(NC(=O)c4ccc(O)c(CC=C(C)C)c4)c(=O)oc3c2C)OC1(C)C the IC50 (second compound 0.0316 µM) was 1590 nM, the IC50 (second compound 0.1 µM) was 1570 nM and the IC50 (second compound 0.316 µM) was 1810 nM. For the same compound, the IC50 (second compound 1 µM) was 1600 nM, the IC50 (second compound 3.16 µM) was 1490 nM and the IC50 (second compound 10 µM) was 1330 nM. The viability, T/C [1] was 97.7%, the viability, T/C [2] was 108% and the viability, T/C [3] was 92.7%. For the same compound, the viability, T/C [4] was 66.8%, the viability, T/C [5] was 25.3% and the viability, T/C [6] was 9.55%. The viability, T/C [7] was 100%, the viability, T/C [8] was 111% and the viability, T/C [9] was 93%. It also gave a viability, T/C [10] of 67.8%, a viability, T/C [11] of 23.5% and a viability, T/C [12] of 11.8%. For the same compound, the viability, T/C [13] was 106%, the viability, T/C [14] was 107% and the viability, T/C [15] was 93.8%. The viability, T/C [16] was 81.2%, the viability, T/C [17] was 20.7% and the viability, T/C [18] was 9.08%. The viability, T/C [19] was 116%, the viability, T/C [20] was 97.9% and the viability, T/C [21] was 95.6%. For the same compound, the viability, T/C [22] was 70.4%, the viability, T/C [23] was 21.9% and the viability, T/C [24] was 10.6%. The viability, T/C [25] was 118%, the viability, T/C [26] was 101% and the viability, T/C [27] was 96.6%. It also gave a viability, T/C [28] of 63.6%, a viability, T/C [29] of 24.7% and a viability, T/C [30] of 9.62%. For the same compound, the viability, T/C [31] was 122%, the viability, T/C [32] was 94.7% and the viability, T/C [33] was 90.6%. The viability, T/C [34] was 61.4%, the viability, T/C [35] was 21.4% and the viability, T/C [36] was 8.32%.

For `COc1cccc2c1C(=O)c1c(O)c3c(c(O)c1C2=O)CC(O)(C(=O)CO)CC3OC1CC(N)C(O)C(C)O1` (stereo unspecified) + COC1C(OC(N)=O)C(O)C(Oc2ccc3c(O)c(NC(=O)c4ccc(O)c(CC=C(C)C)c4)c(=O)oc3c2C)OC1(C)C, the IC50 (second compound 0.0316 µM) was 56.2 nM, the IC50 (second compound 0.1 µM) was 57.3 nM and the IC50 (second compound 0.316 µM) was 64.8 nM. For the same compound, the IC50 (second compound 1 µM) was 63.6 nM, the IC50 (second compound 3.16 µM) was 66.4 nM and the IC50 (second compound 10 µM) was 61.8 nM. It also gave a viability, T/C [1] of 71%, a viability, T/C [2] of 23.6% and a viability, T/C [3] of 21.3%. It also gave a viability, T/C [4] of 8.86%, a viability, T/C [5] of 0.64% and a viability, T/C [6] of 0.19%. It also gave a viability, T/C [7] of 69.5%, a viability, T/C [8] of 27.6% and a viability, T/C [9] of 22.3%. The viability, T/C [10] was 8.87%, the viability, T/C [11] was 0.52% and the viability, T/C [12] was 0.98%. The viability, T/C [13] was 74.3%, the viability, T/C [14] was 29.4% and the viability, T/C [15] was 25.5%. For the same compound, the viability, T/C [16] was 8.79%, the viability, T/C [17] was 0.27% and the viability, T/C [18] was 0.29%. The viability, T/C [19] was 78.3%, the viability, T/C [20] was 26% and the viability, T/C [21] was 23.6%. The viability, T/C [22] was 11.8%, the viability, T/C [23] was 3.28% and the viability, T/C [24] was 2.08%. The viability, T/C [25] was 76.4%, the viability, T/C [26] was 30.7% and the viability, T/C [27] was 22.9%. The viability, T/C [28] was 9.68%, the viability, T/C [29] was 0.46% and the viability, T/C [30] was 0.39%. For the same compound, the viability, T/C [31] was 76%, the viability, T/C [32] was 24.7% and the viability, T/C [33] was 24.8%. The viability, T/C [34] was 10%, the viability, T/C [35] was 1.62% and the viability, T/C [36] was 0.41%.

`O=c1[nH]cc(F)c(=O)[nH]1` + COC1C(OC(N)=O)C(O)C(Oc2ccc3c(O)c(NC(=O)c4ccc(O)c(CC=C(C)C)c4)c(=O)oc3c2C)OC1(C)C showed an IC50 (second compound 0.0316 µM) of 4110 nM, an IC50 (second compound 0.1 µM) of 4800 nM and an IC50 (second compound 0.316 µM) of 4270 nM. It also gave an IC50 (second compound 1 µM) of 4010 nM, an IC50 (second compound 3.16 µM) of 5630 nM and an IC50 (second compound 10 µM) of 3270 nM. The viability, T/C [1] was 104%, the viability, T/C [2] was 104% and the viability, T/C [3] was 110%. For the same compound, the viability, T/C [4] was 100%, the viability, T/C [5] was 55.6% and the viability, T/C [6] was 31.2%. For the same compound, the viability, T/C [7] was 105%, the viability, T/C [8] was 108% and the viability, T/C [9] was 106%. The viability, T/C [10] was 98%, the viability, T/C [11] was 60.6% and the viability, T/C [12] was 31.4%. The viability, T/C [13] was 112%, the viability, T/C [14] was 108% and the viability, T/C [15] was 108%. For the same compound, the viability, T/C [16] was 96.9%, the viability, T/C [17] was 55.2% and the viability, T/C [18] was 34.9%. The viability, T/C [19] was 112%, the viability, T/C [20] was 111% and the viability, T/C [21] was 110%. It also gave a viability, T/C [22] of 96.4%, a viability, T/C [23] of 53.9% and a viability, T/C [24] of 35.1%. It also gave a viability, T/C [25] of 112%, a viability, T/C [26] of 118% and a viability, T/C [27] of 113%. The viability, T/C [28] was 97.6%, the viability, T/C [29] was 63.4% and the viability, T/C [30] was 36.9%. It also gave a viability, T/C [31] of 111%, a viability, T/C [32] of 108% and a viability, T/C [33] of 109%. For the same compound, the viability, T/C [34] was 100%, the viability, T/C [35] was 50.6% and the viability, T/C [36] was 31.3%.
